Like-named read-outs stand apart in the source and are kept apart here.
Columns and labels:
[1] = target: T1, CDK2/cyclin O (Homo sapiens, UniProt P24941); details: cited from earlier work
T1 construct: purchased Reaction Biology Corp

[2] = target: T2, TLK1 (Homo sapiens, UniProt Q9UKI8); details: cited from earlier work
T2 construct: purchased Reaction Biology Corp
T2 sequence (Q9UKI8 1-766): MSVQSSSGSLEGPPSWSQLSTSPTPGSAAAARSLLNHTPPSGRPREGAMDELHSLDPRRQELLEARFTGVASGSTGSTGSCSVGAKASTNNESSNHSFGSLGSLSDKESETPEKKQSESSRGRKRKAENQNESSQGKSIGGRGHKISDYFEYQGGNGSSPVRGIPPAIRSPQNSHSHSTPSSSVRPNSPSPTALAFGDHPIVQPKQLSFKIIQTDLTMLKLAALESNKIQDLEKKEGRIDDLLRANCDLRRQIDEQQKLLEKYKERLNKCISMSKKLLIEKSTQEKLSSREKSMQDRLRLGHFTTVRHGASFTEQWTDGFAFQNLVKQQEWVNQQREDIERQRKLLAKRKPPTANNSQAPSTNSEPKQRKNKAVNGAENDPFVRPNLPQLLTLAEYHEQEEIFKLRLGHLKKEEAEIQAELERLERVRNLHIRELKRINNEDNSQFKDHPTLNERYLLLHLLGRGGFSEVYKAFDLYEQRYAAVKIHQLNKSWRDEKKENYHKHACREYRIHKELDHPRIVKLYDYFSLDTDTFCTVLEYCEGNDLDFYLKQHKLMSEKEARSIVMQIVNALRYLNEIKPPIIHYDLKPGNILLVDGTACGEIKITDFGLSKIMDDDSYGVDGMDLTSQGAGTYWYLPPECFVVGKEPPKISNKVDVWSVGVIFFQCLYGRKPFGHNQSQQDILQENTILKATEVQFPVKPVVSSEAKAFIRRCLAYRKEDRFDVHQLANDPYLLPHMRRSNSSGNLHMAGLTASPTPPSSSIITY

[3] = target: T3, EIF2AK2 (Homo sapiens, UniProt P19525); experiment: Kinase panel assay (radiolabelled); type: biochemical; details: 30 μM compound, ATP 10 μM, duplicates Data 1/Data 2
T3 construct: purchased Reaction Biology Corp
T3 sequence (P19525 whole entry): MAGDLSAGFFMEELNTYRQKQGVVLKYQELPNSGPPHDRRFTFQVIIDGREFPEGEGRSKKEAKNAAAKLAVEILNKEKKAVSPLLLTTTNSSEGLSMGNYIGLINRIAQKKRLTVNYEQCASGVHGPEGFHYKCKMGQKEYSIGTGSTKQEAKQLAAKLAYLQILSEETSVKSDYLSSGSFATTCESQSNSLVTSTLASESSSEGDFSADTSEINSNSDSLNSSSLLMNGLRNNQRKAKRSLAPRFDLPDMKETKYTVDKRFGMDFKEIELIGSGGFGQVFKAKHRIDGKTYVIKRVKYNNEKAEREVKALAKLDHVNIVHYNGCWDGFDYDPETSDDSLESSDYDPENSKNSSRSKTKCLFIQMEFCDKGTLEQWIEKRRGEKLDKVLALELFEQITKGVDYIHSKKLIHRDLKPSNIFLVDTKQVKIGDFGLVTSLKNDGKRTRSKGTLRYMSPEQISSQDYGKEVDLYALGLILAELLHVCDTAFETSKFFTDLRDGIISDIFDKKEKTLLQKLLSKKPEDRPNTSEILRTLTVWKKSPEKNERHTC

[4] = target: T4, JNK3 (Homo sapiens, UniProt P53779); experiment: Kinase panel assay (radiolabelled); type: biochemical; details: ATP 10 μM
T4 construct: purchased Reaction Biology Corp
T4 sequence (P53779 whole entry): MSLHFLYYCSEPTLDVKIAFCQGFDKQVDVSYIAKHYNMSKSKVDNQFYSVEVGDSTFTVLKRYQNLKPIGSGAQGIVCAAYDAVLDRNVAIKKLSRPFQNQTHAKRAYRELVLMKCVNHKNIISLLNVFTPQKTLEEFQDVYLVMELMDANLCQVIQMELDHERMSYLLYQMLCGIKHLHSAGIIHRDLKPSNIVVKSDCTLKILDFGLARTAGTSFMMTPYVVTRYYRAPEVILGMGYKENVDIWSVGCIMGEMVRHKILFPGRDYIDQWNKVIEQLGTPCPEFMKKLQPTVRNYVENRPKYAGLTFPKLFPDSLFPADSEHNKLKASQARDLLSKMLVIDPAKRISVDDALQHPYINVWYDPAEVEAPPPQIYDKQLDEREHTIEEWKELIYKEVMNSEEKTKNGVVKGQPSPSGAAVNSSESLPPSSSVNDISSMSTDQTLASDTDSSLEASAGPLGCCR

[5] = target: T5, TRKC (G623E) (Homo sapiens, UniProt Q16288, G623E); experiment: Kinase panel assay (radiolabelled); type: biochemical; details: 30 μM compound, ATP 10 μM, duplicates Data 1/Data 2
T5 construct: purchased Reaction Biology Corp
T5 sequence (Q16288 32-839 G623E): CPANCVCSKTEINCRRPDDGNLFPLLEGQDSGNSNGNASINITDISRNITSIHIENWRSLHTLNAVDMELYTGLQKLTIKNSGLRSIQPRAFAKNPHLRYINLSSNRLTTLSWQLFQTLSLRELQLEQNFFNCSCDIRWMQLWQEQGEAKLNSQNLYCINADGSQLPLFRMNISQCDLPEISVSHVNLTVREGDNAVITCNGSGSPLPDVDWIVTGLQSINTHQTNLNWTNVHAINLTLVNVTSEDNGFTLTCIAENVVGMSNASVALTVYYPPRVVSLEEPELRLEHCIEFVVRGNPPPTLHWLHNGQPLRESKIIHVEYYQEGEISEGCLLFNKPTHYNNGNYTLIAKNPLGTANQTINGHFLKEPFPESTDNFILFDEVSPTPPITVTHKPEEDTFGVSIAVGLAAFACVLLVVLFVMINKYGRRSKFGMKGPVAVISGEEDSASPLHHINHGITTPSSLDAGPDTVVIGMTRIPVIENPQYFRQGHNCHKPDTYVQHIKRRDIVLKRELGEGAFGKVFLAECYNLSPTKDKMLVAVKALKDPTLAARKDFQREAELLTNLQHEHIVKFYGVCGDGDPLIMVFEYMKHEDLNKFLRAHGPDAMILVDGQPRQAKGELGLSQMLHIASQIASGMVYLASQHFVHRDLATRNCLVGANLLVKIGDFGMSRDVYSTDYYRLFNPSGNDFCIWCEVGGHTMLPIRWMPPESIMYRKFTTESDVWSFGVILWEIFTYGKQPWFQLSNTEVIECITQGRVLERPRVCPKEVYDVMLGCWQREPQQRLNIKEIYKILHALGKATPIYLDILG

[6] = target: T6, PI4Ka (Homo sapiens, UniProt P42356); experiment: Kinase panel assay (lipid kinase); type: biochemical; details: 30 μM compound, ATP 10 μM, duplicates Data 1/Data 2
T6 construct: purchased Reaction Biology Corp
T6 sequence (P42356 whole entry): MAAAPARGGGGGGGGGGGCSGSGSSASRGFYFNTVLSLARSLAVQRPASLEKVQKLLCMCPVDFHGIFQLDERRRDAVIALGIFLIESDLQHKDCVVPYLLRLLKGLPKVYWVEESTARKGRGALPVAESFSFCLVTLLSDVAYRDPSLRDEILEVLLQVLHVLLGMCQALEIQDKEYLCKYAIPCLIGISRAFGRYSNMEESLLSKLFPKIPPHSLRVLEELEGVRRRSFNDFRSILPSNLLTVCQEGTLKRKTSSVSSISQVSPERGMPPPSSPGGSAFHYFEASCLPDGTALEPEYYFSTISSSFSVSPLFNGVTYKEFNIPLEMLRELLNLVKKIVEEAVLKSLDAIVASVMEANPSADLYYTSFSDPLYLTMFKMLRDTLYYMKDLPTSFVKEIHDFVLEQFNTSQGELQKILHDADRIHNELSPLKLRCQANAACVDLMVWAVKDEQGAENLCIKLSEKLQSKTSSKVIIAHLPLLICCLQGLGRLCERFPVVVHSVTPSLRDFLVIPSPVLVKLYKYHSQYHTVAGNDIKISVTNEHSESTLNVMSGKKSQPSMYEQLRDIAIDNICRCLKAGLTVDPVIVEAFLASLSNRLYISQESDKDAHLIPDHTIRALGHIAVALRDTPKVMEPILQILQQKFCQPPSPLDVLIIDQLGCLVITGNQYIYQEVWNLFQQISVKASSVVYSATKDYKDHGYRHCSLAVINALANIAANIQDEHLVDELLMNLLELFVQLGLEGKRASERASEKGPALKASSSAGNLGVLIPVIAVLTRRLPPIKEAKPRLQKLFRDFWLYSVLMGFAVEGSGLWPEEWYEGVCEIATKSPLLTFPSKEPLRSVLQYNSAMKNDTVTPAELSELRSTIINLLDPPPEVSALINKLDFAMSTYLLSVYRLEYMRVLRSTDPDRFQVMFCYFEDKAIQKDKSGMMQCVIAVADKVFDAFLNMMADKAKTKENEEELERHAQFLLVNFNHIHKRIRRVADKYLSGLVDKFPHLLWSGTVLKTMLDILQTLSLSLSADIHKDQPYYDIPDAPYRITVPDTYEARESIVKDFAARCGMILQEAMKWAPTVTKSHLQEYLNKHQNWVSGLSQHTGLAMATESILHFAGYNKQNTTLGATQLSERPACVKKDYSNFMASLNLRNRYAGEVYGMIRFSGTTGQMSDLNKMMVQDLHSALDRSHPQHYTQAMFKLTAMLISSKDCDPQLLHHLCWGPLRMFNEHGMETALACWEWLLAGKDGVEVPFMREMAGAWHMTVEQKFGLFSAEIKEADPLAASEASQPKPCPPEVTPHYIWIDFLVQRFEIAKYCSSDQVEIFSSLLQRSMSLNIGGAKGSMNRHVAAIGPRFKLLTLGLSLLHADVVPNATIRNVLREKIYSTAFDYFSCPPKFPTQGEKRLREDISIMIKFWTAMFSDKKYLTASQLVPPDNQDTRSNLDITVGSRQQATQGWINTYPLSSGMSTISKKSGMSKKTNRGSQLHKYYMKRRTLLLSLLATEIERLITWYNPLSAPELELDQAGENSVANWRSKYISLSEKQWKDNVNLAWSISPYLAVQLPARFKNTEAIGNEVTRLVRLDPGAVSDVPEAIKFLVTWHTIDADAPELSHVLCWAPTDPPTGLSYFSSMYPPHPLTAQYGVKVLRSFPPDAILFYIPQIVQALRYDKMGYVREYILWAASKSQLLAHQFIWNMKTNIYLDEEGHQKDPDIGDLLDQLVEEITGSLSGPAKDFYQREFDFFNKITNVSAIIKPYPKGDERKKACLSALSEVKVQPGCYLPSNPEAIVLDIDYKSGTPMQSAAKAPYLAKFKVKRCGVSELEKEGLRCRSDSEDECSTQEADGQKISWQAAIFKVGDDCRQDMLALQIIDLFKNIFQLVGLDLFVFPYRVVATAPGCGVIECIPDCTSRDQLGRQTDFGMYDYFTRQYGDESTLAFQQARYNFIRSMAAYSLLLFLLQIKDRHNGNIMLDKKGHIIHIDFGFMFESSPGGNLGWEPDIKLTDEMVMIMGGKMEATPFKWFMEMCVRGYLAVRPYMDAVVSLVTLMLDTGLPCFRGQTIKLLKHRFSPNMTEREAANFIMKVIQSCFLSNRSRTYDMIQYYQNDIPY

[7] = read-out: % Enzyme Activity (relative to DMSO controls)

Compound	% Residual Activity at 30 μM [1] [%]	% Residual Activity at 30 μM [2] [%]	% Enzyme Activity (relative to DMSO controls) [3] [%]	remaining activity at 30 µM [3, 7] [%]	% Enzyme Activity (relative to DMSO controls) ([4]; 30 μM compound, duplicates Data 1/Data 2) [%]	remaining activity at 30 µM ([4]; 30 μM compound, duplicates Data 1/Data 2, read-out: % Enzyme Activity (relative to DMSO controls)) [%]	remaining activity at 30 µM ([4]; 30 μM, average ± SD, read-out: % Residual Activity at 30 μM) [%]	% Enzyme Activity (relative to DMSO controls) [5] [%]	remaining activity at 30 µM [5, 7] [%]	% Enzyme Activity (relative to DMSO controls) [6] [%]	remaining activity at 30 µM [6, 7] [%]
O=C1C=CC2(C=C1)OCC(Cc1cc(C(F)(F)F)cc(C(F)(F)F)c1)C(=O)N2c1ccccc1 (racemic) [1c]	43.1 ± 1.0	58.0 ± 0.9									
O=C1C=CC2(C=C1)OCC(Cc1cn(-c3cccc(Cl)c3)nn1)C(=O)N2c1ccccc1 (centres unmarked) [2d, 3-((1-(3-Chlorophenyl)-1H-1,2,3-triazol-4-yl)methyl)-5-phenyl-1-oxa-5-azaspiro[5.5]undeca-7,10-diene-4,9-dione]			100.73	101	95.42	95.5	95.4 ± 0.1	114.78	118	101.50	101
